Source: patent US4703039A, “Method of producing biologically active molecules having extended life time” (New England Deaconess Hospital Corporation, priority 1985, dated 1987)
Ends that are not written are not given here.

Tests used:
[1] = tested on: ADP-modified human platelet receptor site for fibrinogen; test: Inhibition of 125I-fibrinogen binding to ADP-treated human platelets; details: 10^8 human platelets/0.55 ml treated with 5 mM of ADP, FIG. 8
Method: FIG. 3 is a graph showing that the inhibitory effect of the same conjugate is concentration dependent. In this experiment, human platelets were treated with ADP and a variety of concentrations of the conjugate were added to affect inhibition of ^125 I-fibrinogen binding to the platelets. As the concentration of the conjugate increases, inhibition of binding goes from 0 to almost 100%, showing the effectiveness of the conjugate.

[2] = molecular target: T1, ADP-modified human platelets (von Willebrand factor binding site) (Homo sapiens, UniProt P05106+P08514); test: Inhibition of 125I-labelled von Willebrand factor binding to ADP-treated human platelets; details: 10^8 human platelets/0.55 ml treated with 5 mM of ADP, 14 μg 125I-von Willebrand factor, FIG. 8
T1 construct: 10^8 human platelets/0.55 ml treated with 5 mM of ADP; endogenous in cells; host or cells: human platelets treated with ADP
Method: This Example illustrates that a peptide can be used to inhibit binding of von Willebrand factor to ADP-treated human platelets. FIG. 8 illustrates the level of inhibition of ^125 I-labelled von Willebrand factor or fibrinogen binding to ADP-modified human platelets by incubation with a synthetic dodecapeptide

[3] = molecular target: T2, ristocetin-modified human platelets (von Willebrand factor binding site) (Homo sapiens, UniProt P07359); test: Inhibition of 125I-labelled von Willebrand factor binding to ristocetin-treated human platelets; details: human platelets treated with 0.6 mg/ml ristocetin, FIG. 8
T2 construct: von Willebrand factor to human platelets treated with 0.6 mg/ml ristocetin; endogenous in cells; host or cells: human platelets treated with ristocetin

[4] = tested on: hemostatic plug formation; test: In vivo rabbit superior mesenteric artery perfusion, bleeding time; details: FIG. 11
Method: This Example illustrates an in vivo model of mesentric artery perfusion in a rabbit. The experimental model employed involved anesthesized white New Zealand rabbits, weighing about 2.0 kg, and fed standard diet. The right femoral artery was canulated for blood pressure measurement and blood sampling. A midline abdominal incision was made to exteriorize the small intestine, the mesentery was draped over a microscope table, and superfused continuously with saline at 37° C. […] Small arteries of 100-200 μm external diameter were cut one third across with a surgical blade at the junction of the mesentery with the intestine. The time in seconds was determined from incision until the bleeding was arrested by a spontaneously formed hemostatic plug. Infusions of selected agents tested for their effects on platelet activation were through the mesenteric cannula with a constant volume Harvard pump at a flow rate of 0.11 ml/min. Three animals were used for each dose unless otherwise indicated. Blood pressure, hematocrit, and platelet count were measured prior to and after bleeding time determinations.

[5] = tested on: ADP-treated human platelets; test: Aggregation of ADP-treated human platelets washed free of fibrinogen, by conjugates (percent transmission); assay type: cell-based; details: FIG. 6 curves b and c
Source text: FIG. 5 illustrates the effectiveness of the divalent conjugate on promoting this inhibition reaction. Human platelets were washed free of fibrinogen and other binding proteins and then treated with ADP. […] The lower curve on FIG. 5 is a control of the identical conjugate with a peptide bound to the human serum albumin that is […] to the receptor site.
This Example illustrates that a polyvalent conjugate can also be manufactured and used in an aggregation reaction. […] Multiple copies of a different peptide, residues 397-411 of the gamma chain of fibrinogen bound to a cysteine residue were conjugated to a human serum albumin backbone. Curve a on FIG. 6 illustrates the aggregation of ADP-treated human platelets by this polyvalent conjugate. […] Curves b and c on FIG. 6 are controls illustrating the effectiveness of the conjugate as an artificial fibrinogen. In Curve b, the "model molecule" was first mixed with Fab fragments of rabbit antibody which had been made against the terminal portion of the gamma chain of human fibrinogen. […] This is evident from the almost flat response shown as Curve b on FIG. 6.
The alternate control, inhibiting the artificial fibrinogen reaction using the peptides themselves, is shown in Curve c. In this reaction, the platelets were mixed with unconjugated peptides and then the conjugate was used in attempt to aggregate the platelets.

T2 sequence (P07359 17-652): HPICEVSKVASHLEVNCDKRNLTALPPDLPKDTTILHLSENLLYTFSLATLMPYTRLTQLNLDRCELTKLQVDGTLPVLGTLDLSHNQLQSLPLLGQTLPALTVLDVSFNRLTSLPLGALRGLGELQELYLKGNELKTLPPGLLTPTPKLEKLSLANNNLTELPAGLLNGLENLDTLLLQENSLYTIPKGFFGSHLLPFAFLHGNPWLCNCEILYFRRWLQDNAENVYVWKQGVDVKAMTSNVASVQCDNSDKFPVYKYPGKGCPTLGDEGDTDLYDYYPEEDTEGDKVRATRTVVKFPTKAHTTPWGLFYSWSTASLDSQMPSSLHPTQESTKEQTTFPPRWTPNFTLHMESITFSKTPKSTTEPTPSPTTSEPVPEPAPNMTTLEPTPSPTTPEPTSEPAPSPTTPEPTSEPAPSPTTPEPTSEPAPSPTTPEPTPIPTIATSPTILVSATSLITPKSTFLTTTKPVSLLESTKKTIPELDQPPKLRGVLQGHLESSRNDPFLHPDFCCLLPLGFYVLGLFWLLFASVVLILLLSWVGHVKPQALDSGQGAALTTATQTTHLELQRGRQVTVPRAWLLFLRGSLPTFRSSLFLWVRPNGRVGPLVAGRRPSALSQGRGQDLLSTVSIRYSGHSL
T2 sequence (P13224 26-206 partner): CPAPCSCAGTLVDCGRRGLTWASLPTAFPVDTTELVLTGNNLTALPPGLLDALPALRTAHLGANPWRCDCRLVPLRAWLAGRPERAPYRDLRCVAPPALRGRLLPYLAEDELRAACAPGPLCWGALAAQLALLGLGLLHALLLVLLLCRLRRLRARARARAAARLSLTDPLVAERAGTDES
T2 sequence (P14770 17-177 partner): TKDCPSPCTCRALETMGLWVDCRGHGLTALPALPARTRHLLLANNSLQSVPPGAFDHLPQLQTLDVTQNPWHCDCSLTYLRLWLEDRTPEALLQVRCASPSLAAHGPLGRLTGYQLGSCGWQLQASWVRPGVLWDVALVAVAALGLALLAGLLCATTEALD
T2 sequence (P40197 17-560 partner): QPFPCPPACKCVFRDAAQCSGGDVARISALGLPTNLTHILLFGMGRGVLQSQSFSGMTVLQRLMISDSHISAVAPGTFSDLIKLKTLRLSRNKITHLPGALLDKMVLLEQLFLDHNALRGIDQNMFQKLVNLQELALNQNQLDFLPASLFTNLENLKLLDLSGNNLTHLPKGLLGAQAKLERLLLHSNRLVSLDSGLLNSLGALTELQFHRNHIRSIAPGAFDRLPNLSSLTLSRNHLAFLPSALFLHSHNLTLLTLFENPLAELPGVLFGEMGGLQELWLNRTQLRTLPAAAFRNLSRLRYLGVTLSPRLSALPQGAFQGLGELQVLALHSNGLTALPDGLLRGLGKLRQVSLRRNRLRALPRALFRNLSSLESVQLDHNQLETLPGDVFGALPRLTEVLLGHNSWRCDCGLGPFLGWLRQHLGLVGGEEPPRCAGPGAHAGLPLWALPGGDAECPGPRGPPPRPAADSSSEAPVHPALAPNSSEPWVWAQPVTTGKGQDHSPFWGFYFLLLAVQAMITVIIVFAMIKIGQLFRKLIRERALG
T1 sequence (P08514 32-887 limits assumed): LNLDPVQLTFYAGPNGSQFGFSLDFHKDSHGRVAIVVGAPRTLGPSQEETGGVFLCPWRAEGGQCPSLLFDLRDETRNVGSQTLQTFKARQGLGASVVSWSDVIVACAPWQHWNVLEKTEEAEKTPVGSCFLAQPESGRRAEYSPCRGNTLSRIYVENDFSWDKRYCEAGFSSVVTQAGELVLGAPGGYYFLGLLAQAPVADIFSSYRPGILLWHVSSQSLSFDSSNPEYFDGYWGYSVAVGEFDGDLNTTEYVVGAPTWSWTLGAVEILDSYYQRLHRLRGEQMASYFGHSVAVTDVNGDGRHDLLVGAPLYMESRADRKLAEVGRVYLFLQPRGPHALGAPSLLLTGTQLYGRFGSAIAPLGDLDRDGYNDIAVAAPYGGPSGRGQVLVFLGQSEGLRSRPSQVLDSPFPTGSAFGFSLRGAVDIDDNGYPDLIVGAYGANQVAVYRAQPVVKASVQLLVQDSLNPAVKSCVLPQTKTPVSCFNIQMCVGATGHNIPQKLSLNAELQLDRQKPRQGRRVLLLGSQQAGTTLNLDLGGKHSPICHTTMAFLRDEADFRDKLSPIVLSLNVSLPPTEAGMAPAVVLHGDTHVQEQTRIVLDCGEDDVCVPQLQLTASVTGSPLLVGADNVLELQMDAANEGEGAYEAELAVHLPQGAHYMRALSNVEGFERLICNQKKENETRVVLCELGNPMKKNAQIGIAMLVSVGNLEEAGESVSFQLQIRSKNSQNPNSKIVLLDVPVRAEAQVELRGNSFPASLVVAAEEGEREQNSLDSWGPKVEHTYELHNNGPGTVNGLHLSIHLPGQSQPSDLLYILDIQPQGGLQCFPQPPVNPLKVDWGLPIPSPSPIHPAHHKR
T1 sequence (P08514 891-1039 partner limits assumed): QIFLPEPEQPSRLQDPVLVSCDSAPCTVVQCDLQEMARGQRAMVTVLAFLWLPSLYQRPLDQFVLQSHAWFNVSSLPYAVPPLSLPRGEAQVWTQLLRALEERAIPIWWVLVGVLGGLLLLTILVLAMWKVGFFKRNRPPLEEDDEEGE
T1 sequence (P05106 27-788): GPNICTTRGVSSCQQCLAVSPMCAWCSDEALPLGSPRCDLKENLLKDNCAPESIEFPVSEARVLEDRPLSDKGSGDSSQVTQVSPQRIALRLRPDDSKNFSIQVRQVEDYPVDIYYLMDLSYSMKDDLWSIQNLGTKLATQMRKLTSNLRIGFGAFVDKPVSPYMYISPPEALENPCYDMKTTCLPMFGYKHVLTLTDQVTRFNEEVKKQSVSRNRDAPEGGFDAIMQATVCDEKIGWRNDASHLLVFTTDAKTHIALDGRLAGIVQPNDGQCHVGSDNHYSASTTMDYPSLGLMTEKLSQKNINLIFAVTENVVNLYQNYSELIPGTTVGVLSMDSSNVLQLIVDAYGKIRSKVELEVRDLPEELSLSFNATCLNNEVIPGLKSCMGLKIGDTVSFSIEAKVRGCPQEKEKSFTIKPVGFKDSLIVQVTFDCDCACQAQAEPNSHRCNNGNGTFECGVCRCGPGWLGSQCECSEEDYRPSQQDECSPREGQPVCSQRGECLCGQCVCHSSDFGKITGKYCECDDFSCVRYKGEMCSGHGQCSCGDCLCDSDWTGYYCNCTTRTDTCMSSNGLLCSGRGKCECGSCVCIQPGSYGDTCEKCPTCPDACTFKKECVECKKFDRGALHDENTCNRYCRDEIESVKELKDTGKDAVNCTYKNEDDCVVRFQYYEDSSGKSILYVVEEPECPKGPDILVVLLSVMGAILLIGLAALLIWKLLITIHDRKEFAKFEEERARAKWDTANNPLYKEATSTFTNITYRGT

Substance: HHLGGAKQAGDV [dodecapeptide, H2 N-His-His-Leu-Gly-Gly-Ala-Lys-Gln-Ala-Gly-Asp-Val-C OOH]
- inhibition of 125I-labelled fibrinogen binding [1]: substantial binding inhibition
- inhibition of 125I-labelled von Willebrand factor binding [2]: substantial binding inhibition
- inhibition of 125I-labelled von Willebrand factor binding [3]: does not inhibit

Substance: HHLGGAKQAGDV [inhibitory peptide]
- bleeding time relative to its original time (diluent infusion) ([4]; infusion through the mesenteric cannula): more than double its original time
- time to resume original bleeding time after peptide infusion is replaced by diluent ([4]; said to show clearance of the peptide): approximately 20 minutes

Substance: unconjugated peptides: the peptides of the polyvalent conjugate themselves, unconjugated (gamma chain residues 397-411 with cysteine)
- inhibition of platelet aggregation induced by the polyvalent conjugate (artificial fibrinogen) [5]: aggregation reaction by the artificial fibrinogen conjugate is inhibited
